From patent US10543212B2, “Substituted amines for treating cardiac diseases” (Cardurion Pharmaceuticals, LLC, priority 2017, dated 2020)

These compounds were tested against T1, Full-length, GST-tagged, human CaMKIIδ (Homo sapiens, UniProt Q13557) (assay: CaMKIIδ binding assay (TR-FRET with BODIPY-labeled probe ligand)). Conditions: CaMKIIδ binding assay, results of Table 2.
T1 construct: Full-Length, Glutathione-S-Transferase(GST)-Tagged, Human CaMKIIδ was purchased from Carna Biosciences; purchased Carna Biosciences 02-111
Experimental: In vitro CaMKIIδ inhibitory activity was evaluated by a binding assay.
Full-Length, Glutathione-S-Transferase(GST)-Tagged, Human CaMKIIδ was purchased from Carna Biosciences (product #02-111, Kobe, Japan). Full-length bovine calmodulin was purchased from Wako Pure Chemical Industries (Osaka, Japan). Terbium-labeled anti-GST antibody (Tb-anti-GST Ab) was purchased from Life Technologies (Carlsbad, Calif., USA). Boron-dipyrromethene (BODIPY)-labeled probe ligand was synthesized as described below.
Time-Resolved Fluorescence Resonance Energy Transfer (TR-FRET) Assay
All assays were conducted using 384-well, white, flat-bottomed plates (product #784075, Greiner Bio-One, Frickenhausen, Germany) in kinase assay buffer, which consists of 50 mM HEPES pH 7.6, 10 mM MgCl2, 1 mM EGTA, 0.01% Brig-35, 0.1 mM DTT). The fluorescent probe ligand was added at a final concentration of 300 nM to solutions containing 0.21 nM Tb-anti-GST Ab, 1 mM CaCl2), 10 μg/mL calmodulin, and 0.5 nM GST-tagged CaMKIIδ. After shaded incubation of the protein-probe mixture on ice for 30 min, the premix was dispensed in the assay plate including test inhibitors with 4 fold dilution series of eight concentrations. After 1 hr incubation at room temperature, TR-FRET signals were measured in duplicate using an EnVision microplate reader (Perkin Elmer, Waltham, Mass., USA). The solution in each well was excited with a laser (λ=340 nm) reflected by a dichroic mirror (D400/D505 (Perkin Elmer) through an excitation filter (UV (TRF) 340, (Perkin Elmer)), and fluorescence from Tb and BODIPY were detected through two emission filters (CFP 495 (Perkin Elmer) for Tb, Emission 520 (Perkin Elmer) for BODIPY).
The percentage of inhibition of test compounds was calculated according to equation (1) Inhibition (%)=100×([…]−T)/(μH−μL) (1)
Where T is the value of the wells containing test compounds and μH and μL are the mean values of the 0% and 100% inhibition control wells, respectively. The values of the 0 and 100% controls were the signals obtained in the absence and presence of 3 μM its parent compound, respectively. The half maximal inhibitory concentration (IC50) of test compounds was calculated by fitting the data with the logistic equation using XLfit (IDBS, Guildford, UK). The IC50 was classified according to the following activity ranks.

T1 sequence (Q13557 1-478 isoform Q13557-12): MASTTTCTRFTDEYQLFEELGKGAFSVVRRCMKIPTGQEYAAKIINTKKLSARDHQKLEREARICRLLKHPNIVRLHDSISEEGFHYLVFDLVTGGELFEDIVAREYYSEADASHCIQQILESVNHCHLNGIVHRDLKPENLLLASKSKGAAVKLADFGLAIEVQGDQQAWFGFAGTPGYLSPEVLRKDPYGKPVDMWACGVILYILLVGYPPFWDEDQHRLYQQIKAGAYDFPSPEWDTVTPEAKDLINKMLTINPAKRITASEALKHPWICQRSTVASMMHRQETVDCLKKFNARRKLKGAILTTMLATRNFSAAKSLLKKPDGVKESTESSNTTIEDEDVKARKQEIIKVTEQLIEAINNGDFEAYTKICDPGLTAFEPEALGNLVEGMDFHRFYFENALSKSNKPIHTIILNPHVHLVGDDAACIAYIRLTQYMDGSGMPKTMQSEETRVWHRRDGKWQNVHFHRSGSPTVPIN

| SMILES | IC50 [nM] |
| --- | --- |
| COc1cc2c(cc1Nc1ncc(-c3ccc(Cl)c(O[C@@H](C)Cn4cnnn4)c3)cn1)CCNC2 [Example 465, (S)-N-(5-(3-((1-(1H-tetrazol-1-yl)propan-2-yl)oxy)-4-chlorophenyl)pyrimidin-2-yl)-7-methoxy-1,2,3,4-tetrahydroisoquinolin-6-amine] | < 10 |
| COc1cnc(C2CCC(F)(F)CC2)cc1Nc1ncc(-c2ccc(Cl)c(O[C@@H](C)Cn3cnnn3)c2)cn1 [Example 508, (S)-5-(3-((1-(1H-tetrazol-1-yl)propan-2-yl)oxy)-4-chlorophenyl)-N-(2-(4,4-difluorocyclohexyl)-5-methoxypyridin-4-yl)pyrimidin-2-amine] | ≥ 100 |
| COc1cc2c(cc1Nc1ncc(-c3ccc(Cl)c(O[C@@H](C)Cn4cnnn4)c3)cn1)CCN(CC(=O)O)C2 [Example 506, (S)-2-(6-((5-(3-((1-(1H-tetrazol-1-yl)propan-2-yl)oxy)-4-chlorophenyl)pyrimidin-2-yl)amino)-7-methoxy-3,4-dihydroisoquinolin-2(1H)-yl)acetic acid] | < 10 |
| C[C@@H](Cn1cnnn1)Oc1cc(-c2cnc(Nc3cn(C4CCN(C5CCOCC5)CC4)nc3C3CC3)nc2)ccc1Cl [Example 545, (S)-5-(3-((1-(1H-tetrazol-1-yl)propan-2-yl)oxy)-4-chlorophenyl)-N-(3-cyclopropyl-1-(1-(tetrahydro-2H-pyran-4-yl)piperidin-4-yl)-1H-pyrazol-4-yl)pyrimidin-2-amine] | < 10 |

Same assay, conditions: CaMKIIδ binding assay; activity class per Table 2

| SMILES | IC50 [nM] |
| --- | --- |
| C[C@@H](CN1CCCC1=O)Oc1cc(-c2cnc(Nc3cn([C@H]4CC[C@H](N5CCOCC5)CC4)nc3C(F)(F)F)nc2)ccc1C#N [Example 900, 4-(2-((1-(trans-4-morpholinocyclohexyl)-3-(trifluoromethyl)-1H-pyrazol-4-yl)amino)pyrimidin-5-yl)-2-(((S)-1-(2-oxopyrrolidin-1-yl)propan-2-yl)oxy)benzonitrile] | 10 to 100 |
| Cc1nccc(N2CC3(CC(n4cc(Nc5ncc(-c6ccc(Cl)c(O[C@@H](C)Cn7cnnn7)c6)cn5)c(OCC(F)(F)F)n4)C3)C2)n1 [Example 1000, (S)-5-(3-((1-(1H-tetrazol-1-yl)propan-2-yl)oxy)-4-chlorophenyl)-N-(1-(2-(2-methylpyrimidin-4-yl)-2-azaspiro[3.3]heptan-6-yl)-3-(2,2,2-trifluoroethoxy)-1H-pyrazol-4-yl)pyrimidin-2-amine] | < 10 |
| C[C@@H](Cn1cnnn1)Oc1cc(-c2cnc(Nc3cn(CC4(O)CCN(C)CC4)nc3OCC(F)(F)F)nc2)ccc1Cl [Example 910, (S)-4-((4-((5-(3-((1-(1H-tetrazol-1-yl)propan-2-yl)oxy)-4-chlorophenyl)pyrimidin-2-yl)amino)-3-(2,2,2-trifluoroethoxy)-1H-pyrazol-1-yl)methyl)-1-methylpiperidin-4-ol] | < 10 |

Same assay, conditions: Table 2; CaMKIIδ binding assay, activity given as class A/B/C

| SMILES | IC50 [nM] |
| --- | --- |
| C[C@@H](Cn1cc(F)cn1)Oc1cc(-c2cnc(Nc3cn([C@H]4CC[C@H](N5CCOCC5)CC4)nc3OCC(F)(F)F)nc2)ccc1C#N [Example 830, 2-(((S)-1-(4-fluoro-1H-pyrazol-1-yl)propan-2-yl)oxy)-4-(2-((1-(trans-4-morpholinocyclohexyl)-3-(2,2,2-trifluoroethoxy)-1H-pyrazol-4-yl)amino)pyrimidin-5-yl)benzonitrile] | < 10 |
| C[C@@H](Cn1cnnn1)Oc1cc(-c2cnc(Nc3n[nH]cc3Cl)nc2)ccc1Cl [Example 749, (S)-5-(3-((1-(1H-tetrazol-1-yl)propan-2-yl)oxy)-4-chlorophenyl)-N-(4-chloro-1H-pyrazol-3-yl)pyrimidin-2-amine] | 10 to 100 |
| C[C@@H](Cn1cnnn1)Oc1cc(-c2cnc(Nc3cn([C@H]4CC[C@@H](N5CCC5)CC4)nc3C(F)(F)F)nc2)ccc1C#N [Example 773, 2-(((S)-1-(1H-tetrazol-1-yl)propan-2-yl)oxy)-4-(2-((1-(cis-4-(azetidin-1-yl)cyclohexyl)-3-(trifluoromethyl)-1H-pyrazol-4-yl)amino)pyrimidin-5-yl)benzonitrile] | < 10 |
| C[C@@H](Cn1cnnn1)Oc1cc(-c2cnc(Nc3cn(C4CCN(C5CC5)CC4)nc3OCC(F)(F)F)nc2)ccc1Cl [Example 794, (S)-5-(3-((1-(1H-tetrazol-1-yl)propan-2-yl)oxy)-4-chlorophenyl)-N-(1-(1-cyclopropylpiperidin-4-yl)-3-(2,2,2-trifluoroethoxy)-1H-pyrazol-4-yl)pyrimidin-2-amine] | < 10 |
| C[C@@H](Cn1cnnn1)Oc1cc(-c2cnc(Nc3cn([C@H]4CC[C@H](N5CC(F)C5)CC4)nc3OC3COC3)nc2)ccc1Cl [Example 863, 5-(3-(((S)-1-(1H-tetrazol-1-yl)propan-2-yl)oxy)-4-chlorophenyl)-N-(1-(trans-4-(3-fluoroazetidin-1-yl)cyclohexyl)-3-(oxetan-3-yloxy)-1H-pyrazol-4-yl)pyrimidin-2-amine] | < 10 |
| C[C@@H](Cn1cnnn1)Oc1cc(-c2cnc(Nc3cn(C4CCC(=O)CC4)nc3OCC(F)F)nc2)ccc1Cl [Example 800, (S)-4-(4-((5-(3-((1-(1H-tetrazol-1-yl)propan-2-yl)oxy)-4-chlorophenyl)pyrimidin-2-yl)amino)-3-(2,2-difluoroethoxy)-1H-pyrazol-1-yl)cyclohexan-1-one] | < 10 |

Same assay, conditions: Table 2; activity class for CaMKIIδ

| SMILES | IC50 [nM] |
| --- | --- |
| CCOC(=O)C1CCC(n2cc(Nc3ncc(-c4ccc(Cl)c(O[C@@H](C)Cn5cnnn5)c4)cn3)c(C(F)(F)F)n2)CC1 (stereo partly drawn) [Example 603, ethyl (S)-4-(4-((5-(3-((1-(1H-tetrazol-1-yl)propan-2-yl)oxy)-4-chlorophenyl)pyrimidin-2-yl)amino)-3-(trifluoromethyl)-1H-pyrazol-1-yl)cyclohexane-1-carboxylate] | 10 to 100 |
| COc1nc(N2CCN(CC(F)(F)F)CC2)ccc1Nc1ncc(-c2ccc(Cl)c(O[C@@H](C)Cn3cnnn3)c2)cn1 [Example 637, (S)-5-(3-((1-(1H-tetrazol-1-yl)propan-2-yl)oxy)-4-chlorophenyl)-N-(2-methoxy-6-(4-(2,2,2-trifluoroethyl)piperazin-1-yl)pyridin-3-yl)pyrimidin-2-amine] | ≥ 100 |
| C[C@@H](Cn1cnnn1)Oc1cc(-c2cnc(Nc3cn(CC4CNC4)nc3C(F)(F)F)nc2)ccc1Cl [Example 597, (S)-5-(3-((1-(1H-tetrazol-1-yl)propan-2-yl)oxy)-4-chlorophenyl)-N-(1-(azetidin-3-ylmethyl)-3-(trifluoromethyl)-1H-pyrazol-4-yl)pyrimidin-2-amine] | < 10 |
| C[C@@H](Cn1cnnn1)Oc1cc(-c2cnc(Nc3cn(C4CN(C(=O)OC(C)(C)C)C4)nc3C(F)(F)F)nc2)ccc1Cl [Example 696, tert-butyl (S)-3-(4-((5-(3-((1-(1H-tetrazol-1-yl)propan-2-yl)oxy)-4-chlorophenyl)pyrimidin-2-yl)amino)-3-(trifluoromethyl)-1H-pyrazol-1-yl)azetidine-1-carboxylate] | 10 to 100 |
| C[C@@H](Cn1cnnn1)Oc1cc(-c2cnc(Nc3cn(CC4CCCCO4)nc3C(F)(F)F)nc2)ccc1Cl (stereo partly drawn) [Example 712, 5-(3-(((S)-1-(1H-tetrazol-1-yl)propan-2-yl)oxy)-4-chlorophenyl)-N-(1-((tetrahydro-2H-pyran-2-yl)methyl)-3-(trifluoromethyl)-1H-pyrazol-4-yl)pyrimidin-2-amine] | 10 to 100 |
| Cc1cc(Nc2ncc(-c3ccc(Cl)c(O[C@@H](C)Cn4cnnn4)c3)cn2)n(CC(F)(F)F)n1 [Example 659, (S)-5-(3-((1-(1H-tetrazol-1-yl)propan-2-yl)oxy)-4-chlorophenyl)-N-(3-methyl-1-(2,2,2-trifluoroethyl)-1H-pyrazol-5-yl)pyrimidin-2-amine] | 10 to 100 |
| C[C@@H](Cn1cnnn1)Oc1cc(-c2cnc(Nc3cn(Cc4cccnc4)nc3C(F)(F)F)nc2)ccc1Cl [Example 708, (S)-5-(3-((1-(1H-tetrazol-1-yl)propan-2-yl)oxy)-4-chlorophenyl)-N-(1-(pyridin-3-ylmethyl)-3-(trifluoromethyl)-1H-pyrazol-4-yl)pyrimidin-2-amine] | 10 to 100 |
| COc1cc2c(cc1Nc1ncc(-c3ccc(C#N)c(O[C@@H](C)Cn4cnnn4)c3)cn1)N(C(=O)C(F)(F)F)CCC2 [Example 585, (S)-2-((1-(1H-tetrazol-1-yl)propan-2-yl)oxy)-4-(2-((6-methoxy-1-(2,2,2-trifluoroacetyl)-1,2,3,4-tetrahydroquinolin-7-yl)amino)pyrimidin-5-yl)benzonitrile] | 10 to 100 |
